Source: ChEMBL document CHEMBL6096658, “Discovery of Potent, Highly Selective, and Efficacious SMARCA2 Degraders” (J Med Chem, 2025)
The source made the active and inactive calls. The rule behind the calls is not given here.

Columns and labels:
[1] = target: T1, von Hippel-Lindau disease tumor suppressor/SWI/SNF-related matrix-associated actin-dependent regulator of chromatin subfamily A member 2 (Homo sapiens, UniProt P51531+P40337); assay: Binding affinity to flag-tagged SMARCA2/VHL (unknown origin) assessed as ternary complex formation by measuring HTRF signal incubated for 120 mins by Envision reader analysis; type: protein assay
Target sequence in this assay (P40337 whole entry, looked up): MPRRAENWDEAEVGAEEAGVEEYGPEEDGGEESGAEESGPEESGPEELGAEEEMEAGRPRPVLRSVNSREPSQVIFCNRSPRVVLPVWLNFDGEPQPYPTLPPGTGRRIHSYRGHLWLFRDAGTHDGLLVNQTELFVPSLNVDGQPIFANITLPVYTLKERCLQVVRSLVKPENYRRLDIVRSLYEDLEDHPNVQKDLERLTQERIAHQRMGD
Target sequence in this assay (P51531 whole entry, looked up): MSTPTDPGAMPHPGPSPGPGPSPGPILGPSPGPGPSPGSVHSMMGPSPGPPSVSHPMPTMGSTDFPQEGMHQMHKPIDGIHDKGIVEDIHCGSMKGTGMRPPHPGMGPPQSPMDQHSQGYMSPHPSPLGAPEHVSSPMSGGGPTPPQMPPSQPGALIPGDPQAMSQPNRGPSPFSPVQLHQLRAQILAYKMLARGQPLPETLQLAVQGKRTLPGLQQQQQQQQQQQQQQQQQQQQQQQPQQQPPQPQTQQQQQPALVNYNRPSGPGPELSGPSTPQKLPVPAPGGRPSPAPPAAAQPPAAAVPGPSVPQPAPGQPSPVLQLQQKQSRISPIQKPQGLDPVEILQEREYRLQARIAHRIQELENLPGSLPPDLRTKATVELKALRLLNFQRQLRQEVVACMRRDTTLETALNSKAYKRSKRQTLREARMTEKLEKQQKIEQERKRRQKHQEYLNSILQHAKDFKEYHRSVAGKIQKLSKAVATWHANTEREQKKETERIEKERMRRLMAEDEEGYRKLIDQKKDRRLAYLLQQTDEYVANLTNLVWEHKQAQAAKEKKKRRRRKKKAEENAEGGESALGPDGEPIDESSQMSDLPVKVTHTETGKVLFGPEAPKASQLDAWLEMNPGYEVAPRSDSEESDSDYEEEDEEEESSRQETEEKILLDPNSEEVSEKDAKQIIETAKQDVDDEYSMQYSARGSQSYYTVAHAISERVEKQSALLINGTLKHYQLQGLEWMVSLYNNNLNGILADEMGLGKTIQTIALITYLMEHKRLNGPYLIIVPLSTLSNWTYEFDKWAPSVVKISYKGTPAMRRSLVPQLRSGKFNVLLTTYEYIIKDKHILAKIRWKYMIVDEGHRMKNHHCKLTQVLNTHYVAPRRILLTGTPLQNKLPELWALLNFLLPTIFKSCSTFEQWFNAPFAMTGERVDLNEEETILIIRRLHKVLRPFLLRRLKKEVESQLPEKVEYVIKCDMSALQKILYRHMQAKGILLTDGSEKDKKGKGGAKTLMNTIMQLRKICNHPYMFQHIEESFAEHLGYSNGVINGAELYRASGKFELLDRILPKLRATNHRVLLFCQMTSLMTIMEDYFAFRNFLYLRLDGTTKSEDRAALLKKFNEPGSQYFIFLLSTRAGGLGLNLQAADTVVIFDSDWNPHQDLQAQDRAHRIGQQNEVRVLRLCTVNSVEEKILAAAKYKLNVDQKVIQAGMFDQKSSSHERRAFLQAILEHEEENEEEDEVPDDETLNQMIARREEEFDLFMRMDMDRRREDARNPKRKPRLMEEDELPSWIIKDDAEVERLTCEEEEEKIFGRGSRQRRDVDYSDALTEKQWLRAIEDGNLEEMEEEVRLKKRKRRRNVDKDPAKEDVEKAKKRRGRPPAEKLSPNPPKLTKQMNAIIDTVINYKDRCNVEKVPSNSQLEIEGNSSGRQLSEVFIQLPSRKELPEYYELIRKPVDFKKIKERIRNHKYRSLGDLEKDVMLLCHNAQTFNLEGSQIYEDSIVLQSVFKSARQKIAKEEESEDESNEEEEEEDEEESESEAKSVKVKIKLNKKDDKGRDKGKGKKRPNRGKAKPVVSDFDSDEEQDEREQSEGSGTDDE

[2] = Selectivity ratio of DC50 for PROTAC activity at VHL/SMARCA4 in human HT-1080 cells (unknown origin) to DC50 for VHL/SMARCA2 in human HT-1080 cells (unknown origin); type: cell-based
[3] = target: T2, von Hippel-Lindau disease tumor suppressor/SWI/SNF-related matrix-associated actin-dependent regulator of chromatin subfamily A member 4 (Homo sapiens, UniProt P51532+P40337); assay: PROTAC activity at VHL/SMARCA4 in human HT-1080 cells assessed as induction of SMARCA4 degradation by measuring maximum efficacy incubated for 6 hrs by Nano-Glo HiBiT Lytic Detection Assay relative to control; type: cell-based
Target sequence in this assay (P40337 whole entry, looked up): as the sequence (P40337 whole entry, looked up) above
Target sequence in this assay (P51532 whole entry, looked up): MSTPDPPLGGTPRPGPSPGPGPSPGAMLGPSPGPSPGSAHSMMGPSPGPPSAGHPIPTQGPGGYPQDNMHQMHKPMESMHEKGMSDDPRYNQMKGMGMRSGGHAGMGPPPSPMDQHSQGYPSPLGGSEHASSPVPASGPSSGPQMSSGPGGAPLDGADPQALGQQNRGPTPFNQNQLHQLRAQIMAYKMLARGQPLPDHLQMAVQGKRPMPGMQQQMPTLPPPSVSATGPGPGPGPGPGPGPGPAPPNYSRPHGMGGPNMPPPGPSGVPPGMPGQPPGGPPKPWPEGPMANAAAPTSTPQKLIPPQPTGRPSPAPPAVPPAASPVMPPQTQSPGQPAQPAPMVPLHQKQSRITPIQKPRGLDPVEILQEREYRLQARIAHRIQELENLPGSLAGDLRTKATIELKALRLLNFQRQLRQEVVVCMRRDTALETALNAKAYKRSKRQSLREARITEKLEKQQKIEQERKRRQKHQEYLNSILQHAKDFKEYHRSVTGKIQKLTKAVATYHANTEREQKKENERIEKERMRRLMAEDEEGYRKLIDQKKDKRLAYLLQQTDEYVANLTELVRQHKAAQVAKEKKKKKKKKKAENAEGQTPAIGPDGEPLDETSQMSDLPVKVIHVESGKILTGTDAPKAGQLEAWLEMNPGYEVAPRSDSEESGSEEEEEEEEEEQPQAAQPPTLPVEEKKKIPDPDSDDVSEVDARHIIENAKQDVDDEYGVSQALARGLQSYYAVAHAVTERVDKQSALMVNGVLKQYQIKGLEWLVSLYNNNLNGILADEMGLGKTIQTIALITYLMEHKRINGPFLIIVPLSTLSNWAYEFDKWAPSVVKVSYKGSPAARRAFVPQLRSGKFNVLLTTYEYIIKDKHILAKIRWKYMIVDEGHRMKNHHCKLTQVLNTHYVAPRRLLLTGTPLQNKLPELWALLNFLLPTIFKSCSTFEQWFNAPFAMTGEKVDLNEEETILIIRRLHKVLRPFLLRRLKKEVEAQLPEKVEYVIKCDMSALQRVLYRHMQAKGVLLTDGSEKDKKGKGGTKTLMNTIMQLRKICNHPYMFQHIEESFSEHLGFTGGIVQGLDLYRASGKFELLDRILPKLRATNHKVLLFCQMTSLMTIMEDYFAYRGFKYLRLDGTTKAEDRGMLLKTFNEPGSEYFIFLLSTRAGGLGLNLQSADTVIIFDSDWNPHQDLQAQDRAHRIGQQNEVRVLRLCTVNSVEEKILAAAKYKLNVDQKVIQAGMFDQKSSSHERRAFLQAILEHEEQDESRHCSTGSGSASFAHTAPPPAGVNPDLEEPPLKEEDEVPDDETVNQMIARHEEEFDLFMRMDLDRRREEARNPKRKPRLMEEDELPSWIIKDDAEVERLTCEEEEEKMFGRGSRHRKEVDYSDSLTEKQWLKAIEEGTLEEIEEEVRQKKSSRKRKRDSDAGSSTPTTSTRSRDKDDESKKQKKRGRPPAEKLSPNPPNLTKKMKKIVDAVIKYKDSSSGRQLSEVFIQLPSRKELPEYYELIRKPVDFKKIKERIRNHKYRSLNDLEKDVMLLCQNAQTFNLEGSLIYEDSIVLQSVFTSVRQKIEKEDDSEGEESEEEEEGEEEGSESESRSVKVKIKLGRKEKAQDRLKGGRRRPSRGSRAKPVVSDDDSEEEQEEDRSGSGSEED

[4] = target: SWI/SNF-related matrix-associated actin-dependent regulator of chromatin subfamily A member 2 (Homo sapiens, UniProt P51531); assay: Binding affinity to SMARCA2 (unknown origin) incubated for 30 mins by HTRF assay
[5] = target: T1, von Hippel-Lindau disease tumor suppressor/SWI/SNF-related matrix-associated actin-dependent regulator of chromatin subfamily A member 2; assay: PROTAC activity at VHL/SMARCA2 in human HT-1080 cells assessed as induction of SMARCA2 degradation by measuring maximum efficacy incubated for 6 hrs by Nano-Glo HiBiT Lytic Detection Assay relative to control; type: cell-based
Target sequence in this assay (P40337 whole entry, looked up): as the sequence (P40337 whole entry, looked up) above
Target sequence in this assay (P51531 whole entry, looked up): as the sequence (P51531 whole entry, looked up) above

[6] = target: von Hippel-Lindau disease tumor suppressor (Homo sapiens, UniProt P40337); assay: Binding affinity to VHL (unknown origin) incubated for 30 mins by HTRF assay
[7] = target: T2, von Hippel-Lindau disease tumor suppressor/SWI/SNF-related matrix-associated actin-dependent regulator of chromatin subfamily A member 4; assay: PROTAC activity at VHL/SMARCA4 in human HT-1080 cells assessed as induction of SMARCA4 degradation incubated for 24 hrs by Nano-Glo HiBiT Lytic Detection Assay; type: cell-based
Target sequence in this assay (P51532 whole entry): as the sequence (P51532 whole entry, looked up) above
Target sequence in this assay (P40337 whole entry): as the sequence (P40337 whole entry, looked up) above

[8] = target: T1, von Hippel-Lindau disease tumor suppressor/SWI/SNF-related matrix-associated actin-dependent regulator of chromatin subfamily A member 2; assay: PROTAC activity at VHL/SMARCA2 in human HT-1080 cells assessed as induction of SMARCA2 degradation incubated for 24 hrs by Nano-Glo HiBiT Lytic Detection Assay; type: cell-based
Target sequence in this assay (P51531 whole entry): as the sequence (P51531 whole entry, looked up) above
Target sequence in this assay (P40337 whole entry): as the sequence (P40337 whole entry, looked up) above

[9] = target: SWI/SNF-related matrix-associated actin-dependent regulator of chromatin subfamily A member 4 (Homo sapiens, UniProt P51532); assay: Binding affinity to SMARCA4 (unknown origin) incubated for 30 mins by HTRF assay
Calu-6 [10] = assay: Antiproliferative activity against human Calu-6 cells assessed as inhibition of cell proliferation incubated for 6 days by Cell Titer Glo assay; type: functional, cell-based; details: time 6.0 day
NCI-H1568 = assay: Antiproliferative activity against human NCI-H1568 cells assessed as inhibition of cell proliferation incubated for 6 days by Cell Titer Glo assay; type: functional, cell-based; details: time 6.0 day
[11] = target: T2, von Hippel-Lindau disease tumor suppressor/SWI/SNF-related matrix-associated actin-dependent regulator of chromatin subfamily A member 4; assay: In vivo PROTAC activity at VHL/ SMARCA4 in female BALB/c mouse xenografted with human HT-1080 cells at 10 mg/kg, iv measured after 24 hrs relative to control; type: functional, organism-based
Target sequence in this assay (P40337 whole entry, looked up): as above
Target sequence in this assay (P51532 whole entry, looked up): as the sequence (P51532 whole entry, looked up) above

[12] = target: T1, von Hippel-Lindau disease tumor suppressor/SWI/SNF-related matrix-associated actin-dependent regulator of chromatin subfamily A member 2; assay: In vivo PROTAC activity at VHL/ SMARCA2 in female BALB/c mouse xenografted with human HT-1080 cells assessed as reduction in SMARCA2 level in tumor at 10 mg/kg, iv measured after 24 hrs relative to control; type: functional, organism-based; parameters: scale not given: the % may be the effect or the level left
Target sequence in this assay (P40337 whole entry, looked up): as the sequence (P40337 whole entry, looked up) above
Target sequence in this assay (P51531 whole entry, looked up): as the sequence (P51531 whole entry, looked up) above

[13] = target: T2, von Hippel-Lindau disease tumor suppressor/SWI/SNF-related matrix-associated actin-dependent regulator of chromatin subfamily A member 4; assay: In vivo PROTAC activity at VHL/ SMARCA4 in female BALB/c mouse xenografted with human HT-1080 cells at 1 mg/kg, iv measured after 24 hrs relative to control; type: functional, organism-based
Target sequence in this assay (P40337 whole entry, looked up): as the sequence (P40337 whole entry, looked up) above
Target sequence in this assay (P51532 whole entry, looked up): as the sequence (P51532 whole entry, looked up) above

NCI-H1373 = assay: Antiproliferative activity against human NCI-H1373 cells assessed as inhibition of cell proliferation incubated for 6 days by Cell Titer Glo assay; type: functional, cell-based; details: time 6.0 day
HT-1080 = assay: Antiproliferative activity against human HT-1080 cells assessed as inhibition of cell proliferation incubated for 6 days by Cell Titer Glo assay; type: functional, cell-based; details: time 6.0 day
Calu-6 [14] = assay: Antiproliferative activity against human Calu-6 cells assessed as cell growth inhibition incubated for 6 days by Cell Titer Glo assay; type: functional; details: Calu-6, 144 h, time 6 day
NCI-H838 [15] = assay: Antiproliferative activity against human NCI-H838 cells assessed as cell growth inhibition incubated for 6 days by Cell Titer Glo assay; type: functional; details: NCI-H838, 144 h, time 6 day
[16] = Metabolic stability in female BALB/c mouse microsomes assessed as half life administered intravenously; type: ADME; details: route iv
NCI-H838 [17] = assay: Antiproliferative activity against human NCI-H838 cells assessed as inhibition of cell proliferation incubated for 6 days by Cell Titer Glo assay; type: functional, cell-based; details: time 6.0 day
[18] = target: T1, von Hippel-Lindau disease tumor suppressor/SWI/SNF-related matrix-associated actin-dependent regulator of chromatin subfamily A member 2; assay: In vivo PROTAC activity at VHL/ SMARCA2 in female BALB/c mouse xenografted with human HT-1080 cells assessed as reduction in SMARCA2 level in tumor at 1 mg/kg, iv measured after 24 hrs relative to control; type: functional, organism-based; parameters: scale not given: the % may be the effect or the level left
Target sequence in this assay (P40337 whole entry, looked up): as the sequence (P40337 whole entry, looked up) above
Target sequence in this assay (P51531 whole entry, looked up): as the sequence (P51531 whole entry, looked up) above

NCI-H1573 = assay: Antiproliferative activity against human NCI-H1573 cells assessed as inhibition of cell proliferation incubated for 6 days by Cell Titer Glo assay; type: functional, cell-based; details: time 6.0 day

Chain of von Hippel-Lindau disease tumor suppressor (P40337 whole entry): as the sequence (P40337 whole entry, looked up) above
Chain of SWI/SNF-related matrix-associated actin-dependent regulator of chromatin subfamily A member 4 (P51532 whole entry): as the sequence (P51532 whole entry, looked up) above
Chain of SWI/SNF-related matrix-associated actin-dependent regulator of chromatin subfamily A member 2 (P51531 whole entry): as the sequence (P51531 whole entry, looked up) above

## Cc1ncsc1-c1ccc([C@H](C)NC(=O)[C@@H]2C[C@@H](O)CN2C(=O)[C@@H](c2cc(N3CCC(CN4CCC(c5cccc6c5C(C)(C)c5nc(=O)c7c(Cl)cccc7n5-6)CC4)CC3)no2)C(C)C)cc1
[1]
  Activity: Active; Smarca2-Vhl Shows 30% Higher Auc Compared To Smarca4-Vhl Was Observed
[2]
  Ratio: 8
[3]
  Emax: 84%
[4]
  IC50: 150 nM
[5]
  Emax: 94%
[6]
  IC50: 15 nM
[7]
  DC50: 35 nM
[8]
  DC50: 4.4 nM
[9]
  IC50: 83 nM

## Cc1ncsc1-c1ccc([C@H](C)NC(=O)[C@@H]2C[C@@H](O)CN2C(=O)[C@@H](c2cc(OC3CCC(N4CCC(c5ccc6c(c5)C(C)(C)c5nc(=O)c7c(Cl)cccc7n5-6)CC4)CC3)no2)C(C)C)cc1 (stereo partly drawn)
[2]
  Ratio: 7.5
[3]
  Emax: 97%
[4]
  IC50: 47 nM
[5]
  Emax: 99%
[6]
  IC50: 9.3 nM
[7]
  DC50: 1.2 nM
[8]
  DC50: 0.16 nM
[9]
  IC50: 43 nM

## Cc1ncsc1-c1ccc([C@H](C)NC(=O)[C@@H]2C[C@@H](O)CN2C(=O)[C@H](C(C)C)n2cc([C@H]3CC[C@H](CN4CCC(c5ccc6c(c5)C(C)(C)c5nc(=O)c7c(Cl)cccc7n5-6)CC4)CC3)nn2)cc1
Calu-6 [10]
  Activity: Active
[2]
  Ratio: 4
NCI-H1568
  Activity: Active
[11]
  Activity: 93%
[12]
  Activity: > 95%
[3]
  Emax: 97%
[13]
  Activity: 54%
NCI-H1373
  Activity: Active
HT-1080
  Activity: Active
Calu-6 [14]
  GI50: 280 nM
NCI-H838 [15]
  GI50: 3 nM
[16]
  half-life: 5 h
NCI-H838 [17]
  Activity: Active
[5]
  Emax: 98%
[18]
  Activity: 94%
[6]
  IC50: 2.1 nM
NCI-H1573
  Activity: Active
[7]
  DC50: 0.85 nM
[8]
  DC50: 0.22 nM

## O=c1nc2n(c3cccc(Cl)c13)-c1ccc(C3CCNCC3)cc1C21CCCCCC1
[4]
  IC50: 53 nM
[9]
  IC50: 150 nM

## O=c1nc2n(c3cccc(Br)c13)-c1ccc(C3CCNCC3)cc1C21CCCCC1
[4]
  IC50: 4.6 nM
[9]
  IC50: 10 nM

## O=c1nc2n(c3cccc(Cl)c13)-c1cc(C3CCNCC3)ccc1C21CCCCC1
[4]
  IC50: 17 nM
[9]
  IC50: 40 nM

## O=c1nc2n(c3cccc(Cl)c13)-c1ccc(C3CCNCC3)cc1C21CCNCC1
[4]
  IC50: 3500 nM
[9]
  IC50: 9100 nM

## Cc1ncsc1-c1ccc([C@H](C)NC(=O)[C@@H]2C[C@@H](O)CN2C(=O)[C@@H](c2cc(OCCN3CCC(c4ccc5c(c4)C(C)(C)c4nc(=O)c6c(Cl)cccc6n4-5)CC3)no2)C(C)C)cc1
[2]
  Ratio: 15
[3]
  Emax: 80%
[4]
  IC50: 88 nM
[5]
  Emax: 96%
[6]
  IC50: 22 nM
[7]
  DC50: 31 nM
[8]
  DC50: 2.1 nM
[9]
  IC50: 79 nM

## O=c1nc2n(c3cccc(Cl)c13)-c1ccc(C3CCNCC3)cc1C21CCCCC1
[4]
  IC50: 8.8 nM
[9]
  IC50: 18 nM

## O=c1nc2n(c3cccc(Cl)c13)-c1ccc(C3CCNCC3)cc1C21CCCC1
[4]
  IC50: 13 nM
[9]
  IC50: 24 nM

## Cc1ncsc1-c1ccc([C@H](C)NC(=O)[C@@H]2C[C@@H](O)CN2C(=O)[C@@H](c2cc(N3CCC(CN4CCC(c5ccc6c(c5)C(C)(C)c5nc(=O)c7c(Cl)cccc7n5-6)CC4)CC3)no2)C(C)C)cc1
[4]
  IC50: 16 nM
[5]
  Emax: 98%
[6]
  IC50: 6.4 nM
[7]
  DC50: 3.9 nM
[8]
  DC50: 0.61 nM
[9]
  IC50: 27 nM

## Cc1ncsc1-c1ccc([C@H](C)NC(=O)[C@@H]2C[C@@H](O)CN2C(=O)[C@@H](c2cc(OCC(C)CN3CCC(c4ccc5c(c4)-n4c(nc(=O)c6c(Cl)cccc64)C5(C)C)CC3)no2)C(C)C)cc1 (stereo partly drawn)
[2]
  Ratio: 7
[3]
  Emax: 92%
[4]
  IC50: 34 nM
[5]
  Emax: 97%
[6]
  IC50: 6.2 nM
[7]
  DC50: 12 nM
[8]
  DC50: 1.7 nM
[9]
  IC50: 110 nM

## CC1(C)c2cc(C3CCNCC3)ccc2-n2c1nc(=O)c1c(Cl)cccc12
[4]
  IC50: 12 nM
[9]
  IC50: 36 nM

## CC1(C)c2c(C3CCNCC3)cccc2-n2c1nc(=O)c1c(Cl)cccc12
[4]
  IC50: 68 nM
[9]
  IC50: 170 nM

## Cc1ncsc1-c1ccc([C@H](C)NC(=O)[C@@H]2C[C@@H](O)CN2C(=O)[C@@H](NC(=O)[C@H]2CC[C@H](CN3CCC(c4ccc5c(c4)-n4c(nc(=O)c6c(Br)cccc64)C5(C)C)CC3)CC2)C(C)(C)C)cc1
[2]
  Ratio: > 100
[3]
  Emax: 34%
Calu-6 [14]
  GI50: > 1000 nM
NCI-H838 [15]
  GI50: 40 nM
[5]
  Emax: 93%
[6]
  IC50: 280 nM
[7]
  DC50: > 1000 nM
[8]
  DC50: 6.4 nM

## Cc1ncsc1-c1ccc([C@H](C)NC(=O)[C@@H]2C[C@@H](O)CN2C(=O)[C@@H](c2cc(OCCCN3CCC(c4ccc5c(c4)C(C)(C)c4nc(=O)c6c(Cl)cccc6n4-5)CC3)no2)C(C)C)cc1
[2]
  Ratio: 18
[3]
  Emax: 92%
[4]
  IC50: 60 nM
[5]
  Emax: 98%
[6]
  IC50: 17 nM
[7]
  DC50: 26 nM
[8]
  DC50: 1.4 nM
[9]
  IC50: 83 nM

## Cc1ncsc1-c1ccc([C@H](C)NC(=O)[C@@H]2C[C@@H](O)CN2C(=O)[C@@H](c2cc(CN3CCC(c4ccc5c(c4)C(C)(C)c4nc(=O)c6c(Cl)cccc6n4-5)CC3)no2)C(C)C)cc1
[4]
  IC50: 350 nM
[9]
  IC50: 500 nM

## Cc1ncsc1-c1ccc([C@H](C)NC(=O)[C@@H]2C[C@@H](O)CN2C(=O)[C@@H](NC(=O)[C@H]2CC[C@H](CN3CCC(c4ccc5c(c4)-n4c(nc(=O)c6c(Cl)cccc64)C5(C)C)CC3)CC2)C(C)(C)C)cc1
[2]
  Ratio: > 100
[3]
  Emax: 25%
[5]
  Emax: 92%
[6]
  IC50: 370 nM
[7]
  DC50: > 1000 nM
[8]
  DC50: 10 nM

## Cc1ncsc1-c1ccc([C@H](C)NC(=O)[C@@H]2C[C@@H](O)CN2C(=O)[C@@H](c2cc(OCC3(CN4CCC(c5ccc6c(c5)C(C)(C)c5nc(=O)c7c(Cl)cccc7n5-6)CC4)CC3)no2)C(C)C)cc1
[2]
  Ratio: 22
[3]
  Emax: 53%
[4]
  IC50: 72 nM
[5]
  Emax: 87%
[6]
  IC50: 15 nM
[7]
  DC50: 280 nM
[8]
  DC50: 13 nM
[9]
  IC50: 100 nM

## CC1(C)c2ccc(C3CCNCC3)cc2-n2c1nc(=O)c1c(Cl)cccc12
[4]
  IC50: 15 nM
[9]
  IC50: 38 nM

## Cc1ncsc1-c1ccc([C@H](C)NC(=O)[C@@H]2C[C@@H](O)CN2C(=O)[C@@H](c2cc(OCCCCN3CCC(c4ccc5c(c4)C(C)(C)c4nc(=O)c6c(Cl)cccc6n4-5)CC3)no2)C(C)C)cc1
[2]
  Ratio: 12
[3]
  Emax: 93%
[4]
  IC50: 70 nM
[5]
  Emax: 98%
[6]
  IC50: 16 nM
[7]
  DC50: 22 nM
[8]
  DC50: 1.9 nM
[9]
  IC50: 97 nM

## CC1(C)c2cc(C3CCNCC3)ccc2-n2c1nc(=O)c1c(Br)cccc12
[4]
  IC50: 2.8 nM
[9]
  IC50: 5.5 nM
